According to US20220306623A1, “PYRIDYL OR PYRIMIDYL MTOR KINASE INHIBITORS” (GLAXOSMITHKLINE INTELLECTUAL PROPERTY DEVELOPMENT LIMITED, priority 2019, published 2022):

Legend:
[1] = system: type I collagen deposition in primary lung fibroblasts derived from human tissue; assay: Type I collagen deposition (scar-in-a-jar) high content screening assay; assay type: cell-based; details: Primary lung fibroblast, 72 h, human pulmonary fibroblasts, 96-well, TGFβ-1 1 ng/ml 72 h, collagen intensity, read-out: mean pIC50, type I collagen deposition (scar-in-a-jar) (converted)
Description: Cellular type I collagen deposition was measured by adapting a published method; scar-in-a-jar (Chen et al., 2009) to primary lung fibroblasts derived from human tissue and combining with high content analysis to permit fluorescent quantification of collagen deposited in the extracellular matrix (ECM). The human biological samples were sourced ethically and their research use was in accord with the terms of the informed consents under an IRB/EC approved protocol. Human pulmonary fibroblasts were maintained in DMEM media (Gibco, Catalogue No 21969) supplemented with 4 mM L-glutamine (Gibco Catalogue No 25030-024) and 100/heat inactivated FBS (Gibco #10270-106, Lot #42F6663K) at 37° C. in 10%/CO2. Cells were harvested and seeded at 10,000 cells per well (85 μL/well) into black walled 96 well imaging plates (BD Falcon, 353219) in assay media (0.4%/heat inactivated FBS, 4 mM L-glutamine) and incubated overnight at 37° C., 10%/CO2.
Test compounds were dissolved in 1000/DMSO to give 10 mM stocks which were further diluted (serial 1:3) to generate 10 point concentration response curves. Assay media was supplemented with 112.5 mg/ml Ficoll 70 (Sigma, Catalogue No F2878), 75 mg/ml Ficoll 400 (Sigma, Catalogue No F4375) and 50 µg/ml ascorbic acid (Sigma, Catalogue No A8960). 3 μL compound were added to 297 μL assay media (10× compound final concentration in 1% DMSO).
Diluted compounds (15 μL) were transferred to plates containing cells and incubated for 3 h at 37° C. in 10% CO2. Transforming growth factor (TGF)β-1 (R&D Systems, Catalogue No 100-B/CF) was reconstituted according to manufacturer's instructions to give 10 µg/mL (stock) and further diluted (1 in 3333) in assay media containing Ficoll and ascorbic acid. 50 μL TGFβ-1 was added to cell plates (1 ng/ml final) and cells incubated for 72 h at 37° C. in 10% CO2.
Media was removed and cells were fixed with 50 µL/well 100% ice-cold methanol (2 min). Methanol was decanted and cells washed with PBS (3×). To permeabilise, cells were incubated with PBS containing 0.1% Triton X 100 for 90 sec, followed by PBS wash (3×). Cells were incubated with mouse anti human type I collagen monoclonal antibody (Sigma, Catalogue No C2456) diluted 1:1000 in PBS overnight at 4° C. Cells were washed with PBS containing 0.05% Tween-20 (3×) and incubated with secondary alexa fluor 488 goat-anti-mouse antibody (Invitrogen, Catalogue No A11001, 1 in 500 in PBS) and Hoechst 33342 (Sigma, Catalogue No H21492), 1 in 10000 in PBS) for 1 h at RT, prior to washing with PBS containing 0.05% Tween (×3) before finally adding 200 µL/well PBS.
Type I collagen immunoreactivity was detected using the Thermofisher CellInsight NXT set to excitation and emission wavelengths for DAPI and FITC with exposure adjusted to appropriate levels. Images were analysed using Cellomics Studio software (Version 6.6.0, build 8153) and computational algorithms to quantify “collagen intensity” and “cell count”.
Data analysis was performed by determining % response values for test compounds relative to the maximum (TGFβ-1 stimulation) fitting a ‘log(inhibitor) vs. response-Variable slope (four parameters)’ curve and recording pIC50 (inverse of Log IC50) values for test compounds.

[2] = system: phosphorylated Akt at serine 473 (pAKTs473) in primary lung fibroblasts derived from explanted tissue; assay: Phosphorylated Akt (Ser473) in vitro immunoassay (MSD), fibroblasts from explanted tissue; assay type: cell-based; details: Homo sapiens, Primary lung fibroblast, 96-well, compound 2 h, PDGF-BB 10 ng/ml 15 min, read-out: mean pIC50, pAKTs473 immunoassay (converted)
From the text: Immunoassay using the Meso Scale Discovery (MSD) platform to measure the effect of test compounds on phosphorylated Akt at serine 473 (pAKTs473) in primary lung fibroblasts derived from explanted tissue. The human biological samples were sourced ethically and their research use was in accord with the terms of the informed consents under an IRB/EC approved protocol.
Human lung fibroblasts were routinely maintained in Dulbecco's Modified Eagle Medium (DMEM; Gibco, catalogue no. 21969-035) supplemented with 10% foetal bovine serum (FBS (heat-inactivated); Gibco, catalogue no. 10270-106) and 4 mM L-glutamine (Gibco, catalogue no. 25030024) at 37° C. in 10% CO2.
For the assay, cells were harvested using Trypsin/EDTA (Gibco, catalogue no. 25300-062), resuspended to give 1.2×10^5 cells/ml and 100 ul/well seeded into 96-well plates (Corning, Catalogue No. 3596) in DMEM supplemented with 0.4% FCS and 4 mM L-glutamine and incubated overnight at 37° C. in 10% CO2.
Test compounds were dissolved in 100% DMSO to give 10 mM stock solutions and serially diluted to generate a 10-point concentration response curve. Compounds were further diluted 100-fold into 96-well V-bottom polypropylene plates (Greiner, Catalogue no. 651201) with DMEM supplemented with 0.4% FCS and 4 mM L-glutamine to give 100 µM top compound concentration in 1% DMSO.
Compounds were further diluted 10-fold by transfer to 96-well plates containing cells ([…] top concentration, 0.1% DMSO final) and incubated for 2 h at 37° C. in 10% CO2, prior to stimulation with platelet-derived growth factor (PDGF)-BB (Gibco, Catalogue no. PHG0041) at 10 ng/ml (final) for 15 min at 37° C. in 10% CO2. Cell assay plates were then incubated on ice and treated with lysis buffer (Cell Signalling Technology, Catalogue No. 9803) containing protease and phosphatase inhibitors (Halt, Thermo Scientific, Catalogue No. 78444) for 30 min.
MSD plates (MSD, Phospho(Ser473)/Total Akt Whole Cell Lysate Kit, Catalogue No. K15100D-3) were blocked with 1×blocking buffer as per the manufacturer's instructions at RT with shaking, followed by washing (×3) with Tris-buffered saline containing 0.05% Tween-20 (TBST). Cell lysates (30 ul) were added and MSD plates incubated for 1 h at RT with shaking.
Plates were washed with TBST (×3), prior to addition of SULFO-TAG Anti-Total Akt Antibody as per the manufacturer's instructions and shaken at RT for 1 h. After washing with 1×TBST (×3), read buffer (1×) (MSD, Catalogue No. R92TC-1) was added as per the manufacturer's instructions before detecting electrochemiluminescence (MSD Sector Imager 600).
Data analysis was performed using non-linear regression analysis to determine IC50 values for test compounds. Minimum (no PDGF-BB stimulation) and maximum responses (+PDGF-BB stimulation) were monitored for assay quality control.

SMILES | IC50 [1] [µM] | IC50 [2] [µM]
CC[C@H]1COCCN1c1cc(CS(=O)(=O)CC)nc(-c2ccc3[nH]c(CNC)cc3n2)n1 [Example 33, (S)-1-(5-(4-(3-ethylmorpholino)-6-((ethylsulfonyl)methyl)pyrimidin-2-yl)-1H-pyrrolo[3,2-b]pyridin-2-yl)-N-methylmethanamine] | < 3.98 | 
CCCS(=O)(=O)Cc1cc(N2CCOC[C@@H]2CC)nc(-c2ccc3[nH]c(CNC)cc3n2)n1 [Example 32, (S)-1-(5-(4-(3-ethylmorpholino)-6-((propylsulfonyl)methyl)pyrimidin-2-yl)-1H-pyrrolo[3,2-b]pyridin-2-yl)-N-methylmethanamine] | < 3.98 | < 0.1
CC[C@H]1COCCN1c1cc(CS(=O)(=O)N(CC)CC)nc(-c2ccc3[nH]c(CNC)cc3n2)n1 [Example 30, (S)—N,N-diethyl-1-(6-(3-ethylmorpholino)-2-(2-((methylamino)methyl)-1H-pyrrolo[3,2-b]pyridin-5-yl)pyrimidin-4-yl)methanesulfonamide] | < 3.98 | 
